Measured values taken from paper PMC11840788, “3,3′-Diindolylmethane (DIM): A Molecular Scaffold for Inhibition of WWP1 and WWP2, Members of the NEDD4 Family HECT E3 Ligases” (ACS Omega, 2025).
Values joined by “and” are separate entries in the source; they are usually repeats but may differ in a detail not shown here. Equal entries are not always repeated.

Molecular target: T1, WWP1 (His-tagged WWP1-L34H) (Homo sapiens, UniProt Q9H0M0)
T1 construct: WWP1- 2,3-linker-WW3-WW4-HECT (WWP1-L34H); made in house; host or cells: E. coli BL21-CodonPlus RP (plasmid pET32a-WWP1-L34H, gift of Dr Wenyu Wen)
T1 sequence (Q9H0M0 415-922, stated change not applied): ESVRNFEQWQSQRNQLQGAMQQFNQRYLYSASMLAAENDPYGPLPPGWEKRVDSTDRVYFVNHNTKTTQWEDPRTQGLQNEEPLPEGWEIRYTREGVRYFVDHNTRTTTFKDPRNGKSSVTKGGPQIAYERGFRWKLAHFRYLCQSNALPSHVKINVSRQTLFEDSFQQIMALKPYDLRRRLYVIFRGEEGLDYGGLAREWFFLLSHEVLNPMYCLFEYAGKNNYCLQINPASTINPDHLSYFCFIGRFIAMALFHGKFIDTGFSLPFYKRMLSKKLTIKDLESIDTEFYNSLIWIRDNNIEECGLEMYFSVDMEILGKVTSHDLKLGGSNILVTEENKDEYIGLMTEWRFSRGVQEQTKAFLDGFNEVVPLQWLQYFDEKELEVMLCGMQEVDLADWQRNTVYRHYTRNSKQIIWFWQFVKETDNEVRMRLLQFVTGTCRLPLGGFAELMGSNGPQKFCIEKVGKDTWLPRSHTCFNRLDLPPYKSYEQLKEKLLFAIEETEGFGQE
Test: in vitro autoubiquitination assay (single shot and dose dependency), WWP1
Type: biochemical
Protocol: A single shot in vitro autoubiquitination assay was performed for I3C, DIM and each of the derivatives against WWP1 and WWP2 using a compound concentration of 1 mM (1% DMSO) (SI Figure S3). […] These active compounds were then subjected to a detailed dose dependency analysis leading to IC50 values. This strategy has previously been employed to screen other WWP1/WWP2 small molecule inhibitors as well as used to assess I3C inhibition toward NEDD4-1.[29],[32] In this way, compounds displaying a relative activity (RA) of less than 50% in the single shot assay were further screened for dose-dependency using a logarithmic concentration range from 10 nM to 1 mM (1% DMSO) (SI Figure S4). […] These were confirmed by counter assays to remove compounds possibly interacting with other enzymes in the assay or interfering with the assay directly (SI Table S1).
Cell lysate containing His-tagged WWP1-L34H or GST-tagged WWP2-FL proteins were incubated on either 96-well Clear Pierce glutathione or nickel-coated plates for 1 h. Reaction mixtures of either 3 ng/well GST-Uba1 and 15 ng/well UbcH7 or 10 ng/well His-Uba1 and 150 ng/well His-UbcH7 were incubated together in 25 mM Tris pH 8.0, 100 mM NaCl, 4 mM MgCl2 containing 60 ng/well FLAG-ubiquitin and 1.25 mM ATP for 40 min. A prior 1% BSA plate blocking step is required for nickel-coated plates. After plate washing, 2 μL of the compound was added at the desired concentration (1% DMSO) followed by 18 μL of the reaction mixture. This was then incubated for 2 h with 0 and 100% controls before 100 μL of anti-FLAG M2-Peroxidase HRP (1:10,000 PBST) was added to each well and incubated for 1 h. Finally, 100 μL of 1 × TMB substrate solution (Invitrogen) was added to each well and incubated for up to 10 min until sufficient blue color change was observed. To stop the reaction, 100 μL of 1 M HCl was added. For the counter assay, 3 ng/well GST-Uba1 and 200 ng/well UbcH7 were incubated with the other reaction mixture components for 1 h before incubating onto plates for a further 1 h. All other steps were followed. The plates were washed three times with PBST (and 15 mM Imidazole) between each step. Quantification was measured by absorbance read at 450 nm. All assay optimizations were as previously reported.[32] IC50 nonlinear regression curves were calculated in GraphPad v10.2 (Prism). […]
Auto-ubiquitination Assay
Cell lysate containing His-tagged WWP1-L34H or GST-tagged WWP2-FL proteins were incubated on either 96-well Clear Pierce glutathione 2 or nickel-coated plates for 1 hour. Reaction mixtures of either 3 ng/well GST-Uba1 and 15 ng/well UbcH7 or 10 ng/well His-Uba1 and 150 ng/well His-UbcH7 were incubated together in 25 mM Tris pH 8.0, 100 mM NaCl, 4 mM MgCl2 containing 60 ng/well FLAG-ubiquitin and 1.25 mM ATP for 40 minutes. A prior 1 % BSA plate blocking step is required for nickel-coated plates. After plate washing, 2 μL of the compound was added at the desired concentration (1 % DMSO) followed by 18 μL of the reaction mixture. This was then incubated for 2 hours with 0% and 100% controls before 100 μL of anti-FLAG M2-Peroxidase HRP (1: 10,000 PBST) was added to each well and incubated for 1 hour.
Finally, 100 μL of 1 × TMB substrate solution (Invitrogen) was added to each well and […]
incubated for up to 10 minutes until sufficient blue colour change was observed. To stop the reaction, 100 μL of 1 M HCl was added. For the counter assay, 3 ng/well GST-Uba1 and 200 ng/well UbcH7 were incubated with the other reaction mixture components for 1 hour before incubating onto plates for a further 1 hour. All other steps were followed.
The plates were washed three times with PBST (and 15 mM Imidazole) between each step. Quantification was measured by absorbance read at 450 nm. All assay optimisations have been previously reported by Watt and colleagues3.
Relative activity (RA) was determined by comparing the autoubiquitination of the WWP ligases in the presence of each compound, i.e TMB absorbance (450 nm), to the […]

OCc1c[nH]c2ccccc12 [Compound I3C, Indole-3-carbinol, reference compound]
inhibition of WWP1 (in words) (autoubiquitination assay): displayed inhibition
IC50 (nonlinear regression of RA against log concentration, 1 mM to 10 nM, 1% DMSO): ~1.01 mM and 1.01 mM
WWP1 RA (%) relative activity (single shot, compound at 1 mM (1% DMSO), standardized to 0 and 100% controls): 48.2 ± 8.6% and 48.2%
